The assay concerns L1210 leukemia ip in BDF1 mice, survival T/C. Briefly: NCI In Vivo Anticancer Drug Screen. Data for tumor model L1210 Leukemia (intraperitoneal) in B6D2F1 (BDF1) mice. Particulars: endpoint: mean survival time, higher = longer survival. The gist of the method: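 Read-out is survival time, reported as the treated-group measurement over the vehicle-control measurement.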
The mark [1] stands for this setting: dose: 100.0 mg/kg/injection, schedule: Q01DX009 (ip), vehicle: Klucel (hydroxypropylcellulose) (HPC).
Setting [2] is: dose: 100.0 mg/kg/injection, schedule: Q04DX003 (ip), vehicle: Klucel (hydroxypropylcellulose) (HPC).
Setting [3] is: dose: 200.0 mg/kg/injection, schedule: Q01DX009 (ip), vehicle: Klucel (hydroxypropylcellulose) (HPC).
[4] abbreviates: dose: 200.0 mg/kg/injection, schedule: Q04DX003 (ip), vehicle: Klucel (hydroxypropylcellulose) (HPC).
Setting [5] is: dose: 400.0 mg/kg/injection, schedule: Q01DX009 (ip), vehicle: Klucel (hydroxypropylcellulose) (HPC).
[6] abbreviates: dose: 400.0 mg/kg/injection, schedule: Q04DX003 (ip), vehicle: Klucel (hydroxypropylcellulose) (HPC).
[7] abbreviates: dose: 100.0 mg/kg/injection, schedule: Q01DX001 (ip), vehicle: saline.
Setting [8] is: dose: 100.0 mg/kg/injection, schedule: Q01DX009 (ip), vehicle: saline.
[9] abbreviates: dose: 200.0 mg/kg/injection, schedule: Q01DX009 (ip), vehicle: saline.
Setting [10] is: dose: 400.0 mg/kg/injection, schedule: Q01DX009 (ip), vehicle: saline.
Setting [11] is: dose: 100.0 mg/kg/injection, schedule: Q04DX003 (ip), vehicle: saline with Tween-80.
Setting [12] is: dose: 200.0 mg/kg/injection, schedule: Q04DX003 (ip), vehicle: saline with Tween-80.
[13] abbreviates: dose: 100.0 mg/kg/injection, schedule: Q01DX009 (ip), vehicle: saline with Tween-80.
Where [14] appears, read: dose: 400.0 mg/kg/injection, schedule: Q04DX003 (ip), vehicle: saline with Tween-80.
Where [15] appears, read: dose: 100.0 mg/kg/injection, schedule: Q04DX003 (ip), vehicle: saline.
Setting [16] is: dose: 200.0 mg/kg/injection, schedule: Q04DX003 (ip), vehicle: saline.

Structures are written as SMILES. “And” between values parts separate entries of the source, which are not always exact repeats. Equal entries are not always repeated. Toxic doses and inconclusive results are not listed.

Experimental findings from PubChem BioAssay AID248 (DTP/NCI, 2004) are described below.

For `O=C(CCl)NCC(NC(=O)CCl)C(=O)O` (stereo unspecified), the T/C is 115 % of control (dose: 100.0 mg/kg/injection, schedule: Q04DX002 (ip), vehicle: saline); 105 % of control (dose: 200.0 mg/kg/injection, schedule: Q04DX002 (ip), vehicle: saline); 112 % of control (dose: 400.0 mg/kg/injection, schedule: Q04DX002 (ip), vehicle: saline).

On to `CCC(=O)Nc1cc(Cl)ccc1OC`, for which the T/C runs as follows: under setting [1], 94 % of control; under setting [2], 98 % of control; under setting [3], 100 % of control; under setting [4], 93 % of control; under setting [5], 93 % of control; under setting [6], 106 % of control.

As to `CC(=O)CCC(C(C)=O)C(C)=O`, the T/C is, setting by setting: under setting [7], 106 % of control; (dose: 200.0 mg/kg/injection, schedule: Q01DX001 (ip), vehicle: saline) 106 % of control; (dose: 400.0 mg/kg/injection, schedule: Q01DX001 (ip), vehicle: saline) 103 % of control.

Consider `O=C(COc1ccc(Cl)cc1)Nc1ccc(I)cc1`, for which the T/C was 92 % of control (dose: 100.0 mg/kg/injection, schedule: Q04DX002 (ip), vehicle: Klucel (hydroxypropylcellulose) (HPC)); 100 % of control (dose: 200.0 mg/kg/injection, schedule: Q04DX002 (ip), vehicle: Klucel (hydroxypropylcellulose) (HPC)); 96 % of control (dose: 400.0 mg/kg/injection, schedule: Q04DX002 (ip), vehicle: Klucel (hydroxypropylcellulose) (HPC)).

Turning to `C=C(C)C1CCC2(C(=O)OC)CCC3(C)C(CCC4C5(C)CCC(OC6CCCCO6)C(C)(C)C5CCC43C)C12` (stereo unspecified), the T/C reads like this: (dose: 25.0 mg/kg/injection, schedule: Q04DX002 (ip), vehicle: saline with Tween-80) 86 % of control; (dose: 100.0 mg/kg/injection, schedule: Q04DX002 (ip), vehicle: saline with Tween-80) 86 % of control.

In the case of `O=C1CC(NCCO)C(=O)NN1` (stereo unspecified), the T/C is 101 % of control under setting [8], 97 % of control under setting [9] and 100 % of control under setting [10].

On to `CCCN(CCC)NC(=O)c1ccc(N=NN(C)C)cc1`, for which the T/C reads like this: (dose: 25.0 mg/kg/injection, schedule: Q01DX001 (ip), vehicle: other) 106 % of control; (dose: 50.0 mg/kg/injection, schedule: Q01DX001 (ip), vehicle: other) 98 % of control; (dose: 100.0 mg/kg/injection, schedule: Q01DX001 (ip), vehicle: other) 106 % of control; (dose: 100.0 mg/kg/injection, schedule: Q01DX001 (ip), vehicle: saline with Tween-80) 101 % of control.

In the case of `IC1CCC(I)C2CCC1O2` (stereo unspecified) (tested in a mixture with another compound), the T/C reads like this: (dose: 50.0 mg/kg/injection, schedule: Q04DX003 (ip), vehicle: Klucel (hydroxypropylcellulose) (HPC)) 106 % of control; under setting [1], 106 % of control; under setting [2], 101 % of control; under setting [3], 104 % of control; under setting [4], 98 % of control and 100 % of control; under setting [5], 96 % of control. The T/C under setting [6] is 100 % of control.

Turning to `COc1ccc(CNCCNCc2ccc(OC)cc2)cc1`, the T/C runs as follows: (dose: 50.0 mg/kg/injection, schedule: Q01DX009 (ip), vehicle: Klucel (hydroxypropylcellulose) (HPC)) 96 % of control; under setting [1], 100 % of control; (dose: 100.0 mg/kg/injection, schedule: Q01DX009 (ip), vehicle: water) 98 % of control; under setting [2], 103 % of control; (dose: 100.0 mg/kg/injection, schedule: Q04DX003 (ip), vehicle: water) 96 % of control; under setting [3], 96 % of control. The T/C is 92 % of control (dose: 200.0 mg/kg/injection, schedule: Q01DX009 (ip), vehicle: water); 94 % of control under setting [4]; 100 % of control (dose: 200.0 mg/kg/injection, schedule: Q04DX003 (ip), vehicle: water); 89 % of control (dose: 400.0 mg/kg/injection, schedule: Q01DX009 (ip), vehicle: water); 100 % of control (dose: 400.0 mg/kg/injection, schedule: Q04DX003 (ip), vehicle: water).

On to `O[C@@H]1CCC[C@H]1n1cnc2c(=S)nc[nH]c21`, for which the T/C (dose: 89.0 mg/kg/injection, schedule: Q04DX003 (ip), vehicle: saline with Tween-80) is 104 % of control and the T/C (dose: 133.0 mg/kg/injection, schedule: Q04DX003 (ip), vehicle: saline with Tween-80) is 112 % of control.

Turning to `Nc1nc(=S)c2[nH]c(N=Nc3ccc(S(=O)(=O)Nc4ncccn4)cc3)nc2[nH]1`, the T/C was 164 % of control (dose: 19.0 mg/kg/injection, schedule: Q04DX003 (ip), vehicle: Klucel (hydroxypropylcellulose) (HPC)); 164 % of control (dose: 29.0 mg/kg/injection, schedule: Q04DX003 (ip), vehicle: Klucel (hydroxypropylcellulose) (HPC)); 96 % of control under setting [1]; 185 % of control under setting [11]; 97 % of control under setting [3]; 151 % of control under setting [12].

Consider `CC(Sc1ccc([N+](=O)[O-])cn1)C(=O)O` (stereo unspecified), for which the T/C reads like this: (dose: 50.0 mg/kg/injection, schedule: Q01DX001 (ip), vehicle: carboxymethylcellulose (CMC)) 107 % of control; (dose: 100.0 mg/kg/injection, schedule: Q01DX001 (ip), vehicle: carboxymethylcellulose (CMC)) 101 % of control; (dose: 200.0 mg/kg/injection, schedule: Q01DX001 (ip), vehicle: carboxymethylcellulose (CMC)) 101 % of control; (dose: 400.0 mg/kg/injection, schedule: Q01DX001 (ip), vehicle: carboxymethylcellulose (CMC)) 109 % of control.

For the compound `CC(C)c1ccc2ccccc2c1`, the T/C under setting [13] was 95 % of control and the T/C (dose: 200.0 mg/kg/injection, schedule: Q01DX009 (ip), vehicle: saline with Tween-80) was 107 % of control.

Consider `CCOC(=O)NC(C)(C)CN(C(=O)OCC)c1ccccc1`, for which the T/C is, setting by setting: under setting [11], 111 % of control; under setting [12], 108 % of control; under setting [14], 106 % of control.

For the compound `CCNNC`, the T/C is 104 % of control (dose: 12.5 mg/kg/injection, schedule: Q04DX003 (ip), vehicle: saline); 103 % of control (dose: 25.0 mg/kg/injection, schedule: Q04DX003 (ip), vehicle: saline); 101 % of control (dose: 50.0 mg/kg/injection, schedule: Q04DX003 (ip), vehicle: saline); 111 % of control under setting [15]; 108 % of control under setting [16].

For the compound `COC(=O)CCC#N`, the T/C is 101 % of control under setting [8], 91 % of control under setting [9] and 102 % of control under setting [10].

`O=C(O)C(O)(C1CCCCC1)C1CCC2CCC3CCCC1C32` (stereo unspecified): the T/C under setting [13] is 87 % of control.

For `COc1c([N+](=O)[O-])cc(-c2ccccc2)cc1[N+](=O)[O-]`, the T/C is 87 % of control under setting [15]; 87 % of control under setting [16]; 87 % of control (dose: 400.0 mg/kg/injection, schedule: Q04DX003 (ip), vehicle: saline).

Regarding `COC(=O)c1ncn(/C=C/c2ccccc2)c1C(=O)O`, the T/C reads like this: under setting [2], 92 % of control; under setting [4], 91 % of control; under setting [6], 87 % of control.

In the case of `O=[N+]([O-])c1ncn[nH]1`, the T/C under setting [13] is 96 % of control; the T/C under setting [11] is 102 % of control; the T/C under setting [12] was 97 % of control; the T/C (dose: 400.0 mg/kg/injection, schedule: Q01DX009 (ip), vehicle: saline with Tween-80) was 87 % of control; the T/C under setting [14] was 92 % of control.

For the compound `CO/N=C(/c1ccccc1)c1cccc[n+]1C`, the T/C reads like this: (dose: 18.8 mg/kg/injection, schedule: Q04DX003 (ip), vehicle: saline) 100 % of control; (dose: 37.5 mg/kg/injection, schedule: Q04DX003 (ip), vehicle: saline) 103 % of control.

With `O=C(/C=C\c1ccc([N+](=O)[O-])cc1)NCCCCNC(=O)/C=C/c1ccc([N+](=O)[O-])cc1`, the T/C under setting [7] is 96 % of control.

Regarding `O=C1OCC/C1=C/CCC/C=C1\CCOC1=O`, the T/C reads like this: under setting [1], 101 % of control; under setting [2], 100 % of control; under setting [3], 102 % of control; under setting [4], 94 % of control; under setting [5], 88 % of control; under setting [6], 92 % of control.

`COC1=C(c2ccccc2)P(=O)(Cc2ccccc2)C2CCCC12` (stereo unspecified): the T/C by setting is: under setting [2], 109 % of control; under setting [4], 96 % of control; under setting [6], 100 % of control.
